Read-outs that look alike come from different tables or passages of the source.
Legend:
JAK2 = target: T1, JAK2 (Homo sapiens, UniProt O60674); assay: Kinase panel profiling: JAK2; format: biochemical; details: ATP equal to KM
T1 construct: purchased Thermo Fisher Scientific (Invitrogen) SelectScreen (Z'-LYTE)

CLK1 = target: T2, CLK1 (Homo sapiens, UniProt P49759); assay: Kinase panel profiling: CLK1; format: biochemical; details: ATP equal to KM
T2 construct: purchased Thermo Fisher Scientific (Invitrogen) SelectScreen (Z'-LYTE)

[1] = Mouse liver microsome intrinsic clearance, Phase I; format: in vitro ADME; details: in vitro intrinsic clearance
KIT = target: T3, KIT (Homo sapiens, UniProt P10721); assay: Kinase panel profiling: KIT; format: biochemical; details: ATP equal to KM
T3 construct: purchased Thermo Fisher Scientific (Invitrogen) SelectScreen (Z'-LYTE)
T3 sequence (P10721 26-976): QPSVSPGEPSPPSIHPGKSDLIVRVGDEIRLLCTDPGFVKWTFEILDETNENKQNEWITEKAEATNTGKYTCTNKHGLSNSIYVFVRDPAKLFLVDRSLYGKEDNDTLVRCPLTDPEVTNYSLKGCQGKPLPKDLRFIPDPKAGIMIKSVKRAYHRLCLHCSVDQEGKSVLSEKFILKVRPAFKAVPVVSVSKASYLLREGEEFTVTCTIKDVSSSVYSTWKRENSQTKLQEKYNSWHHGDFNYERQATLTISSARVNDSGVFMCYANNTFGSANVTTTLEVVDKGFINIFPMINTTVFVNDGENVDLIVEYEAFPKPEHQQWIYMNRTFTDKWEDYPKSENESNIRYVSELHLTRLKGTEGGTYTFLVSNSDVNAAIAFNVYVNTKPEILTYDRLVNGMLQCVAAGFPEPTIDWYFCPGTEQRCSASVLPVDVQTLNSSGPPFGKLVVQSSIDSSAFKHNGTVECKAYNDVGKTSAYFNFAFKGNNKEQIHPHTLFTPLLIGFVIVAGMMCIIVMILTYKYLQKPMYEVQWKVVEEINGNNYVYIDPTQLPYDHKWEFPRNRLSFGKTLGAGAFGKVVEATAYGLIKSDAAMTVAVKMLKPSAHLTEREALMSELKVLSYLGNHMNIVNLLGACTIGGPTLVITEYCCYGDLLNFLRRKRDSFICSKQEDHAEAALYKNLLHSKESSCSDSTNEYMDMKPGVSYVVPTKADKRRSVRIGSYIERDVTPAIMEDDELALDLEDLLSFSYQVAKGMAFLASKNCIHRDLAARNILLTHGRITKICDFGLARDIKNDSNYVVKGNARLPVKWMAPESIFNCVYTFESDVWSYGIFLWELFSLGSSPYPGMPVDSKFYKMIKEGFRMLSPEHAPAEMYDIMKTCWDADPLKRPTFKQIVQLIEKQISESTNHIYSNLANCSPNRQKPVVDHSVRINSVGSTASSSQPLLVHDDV

ITK = target: T4, ITK (Homo sapiens, UniProt Q08881); assay: Kinase panel profiling: ITK; format: biochemical; details: ATP equal to KM
T4 construct: purchased Thermo Fisher Scientific (Invitrogen) SelectScreen (Z'-LYTE)
T4 sequence (Q08881 1-620): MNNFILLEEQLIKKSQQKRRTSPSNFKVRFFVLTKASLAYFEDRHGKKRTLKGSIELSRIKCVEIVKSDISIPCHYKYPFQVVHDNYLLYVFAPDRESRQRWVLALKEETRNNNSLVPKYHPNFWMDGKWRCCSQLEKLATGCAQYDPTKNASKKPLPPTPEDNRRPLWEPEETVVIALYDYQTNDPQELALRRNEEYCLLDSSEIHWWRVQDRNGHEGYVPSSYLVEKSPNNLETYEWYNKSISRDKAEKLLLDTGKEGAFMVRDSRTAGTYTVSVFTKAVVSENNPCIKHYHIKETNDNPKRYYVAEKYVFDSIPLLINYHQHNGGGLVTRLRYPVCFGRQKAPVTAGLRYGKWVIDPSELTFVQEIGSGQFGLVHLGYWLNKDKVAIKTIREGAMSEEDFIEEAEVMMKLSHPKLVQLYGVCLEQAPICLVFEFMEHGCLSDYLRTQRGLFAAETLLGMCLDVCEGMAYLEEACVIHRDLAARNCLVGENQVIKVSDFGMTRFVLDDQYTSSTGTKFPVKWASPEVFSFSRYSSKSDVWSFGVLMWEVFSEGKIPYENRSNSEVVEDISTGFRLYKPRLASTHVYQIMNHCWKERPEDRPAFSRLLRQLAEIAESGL

AKT1 (PKB alpha) = target: T5, AKT1 (PKB alpha) (Homo sapiens, UniProt P31749); assay: Kinase panel profiling: AKT1; format: biochemical; details: ATP equal to KM
T5 construct: purchased Thermo Fisher Scientific (Invitrogen) SelectScreen (Z'-LYTE)
T5 sequence (P31749 whole entry): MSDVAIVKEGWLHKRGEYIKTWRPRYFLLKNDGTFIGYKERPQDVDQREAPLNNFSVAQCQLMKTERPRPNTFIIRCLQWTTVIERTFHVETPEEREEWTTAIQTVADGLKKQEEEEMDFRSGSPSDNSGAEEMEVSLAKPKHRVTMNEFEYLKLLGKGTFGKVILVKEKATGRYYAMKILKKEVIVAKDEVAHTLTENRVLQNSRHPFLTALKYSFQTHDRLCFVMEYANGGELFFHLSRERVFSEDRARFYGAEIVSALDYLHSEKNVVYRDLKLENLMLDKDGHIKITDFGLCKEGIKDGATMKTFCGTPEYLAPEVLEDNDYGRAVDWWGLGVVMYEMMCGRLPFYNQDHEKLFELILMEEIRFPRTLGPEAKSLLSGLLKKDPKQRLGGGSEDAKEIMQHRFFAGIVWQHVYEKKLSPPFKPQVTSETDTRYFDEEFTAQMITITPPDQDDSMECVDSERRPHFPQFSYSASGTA

MET (cMet) = target: T6, MET (cMet) (Homo sapiens, UniProt P08581); assay: Kinase panel profiling: MET; format: biochemical; details: ATP equal to KM
T6 construct: purchased Thermo Fisher Scientific (Invitrogen) SelectScreen (Z'-LYTE)
T6 sequence (P08581 25-1390): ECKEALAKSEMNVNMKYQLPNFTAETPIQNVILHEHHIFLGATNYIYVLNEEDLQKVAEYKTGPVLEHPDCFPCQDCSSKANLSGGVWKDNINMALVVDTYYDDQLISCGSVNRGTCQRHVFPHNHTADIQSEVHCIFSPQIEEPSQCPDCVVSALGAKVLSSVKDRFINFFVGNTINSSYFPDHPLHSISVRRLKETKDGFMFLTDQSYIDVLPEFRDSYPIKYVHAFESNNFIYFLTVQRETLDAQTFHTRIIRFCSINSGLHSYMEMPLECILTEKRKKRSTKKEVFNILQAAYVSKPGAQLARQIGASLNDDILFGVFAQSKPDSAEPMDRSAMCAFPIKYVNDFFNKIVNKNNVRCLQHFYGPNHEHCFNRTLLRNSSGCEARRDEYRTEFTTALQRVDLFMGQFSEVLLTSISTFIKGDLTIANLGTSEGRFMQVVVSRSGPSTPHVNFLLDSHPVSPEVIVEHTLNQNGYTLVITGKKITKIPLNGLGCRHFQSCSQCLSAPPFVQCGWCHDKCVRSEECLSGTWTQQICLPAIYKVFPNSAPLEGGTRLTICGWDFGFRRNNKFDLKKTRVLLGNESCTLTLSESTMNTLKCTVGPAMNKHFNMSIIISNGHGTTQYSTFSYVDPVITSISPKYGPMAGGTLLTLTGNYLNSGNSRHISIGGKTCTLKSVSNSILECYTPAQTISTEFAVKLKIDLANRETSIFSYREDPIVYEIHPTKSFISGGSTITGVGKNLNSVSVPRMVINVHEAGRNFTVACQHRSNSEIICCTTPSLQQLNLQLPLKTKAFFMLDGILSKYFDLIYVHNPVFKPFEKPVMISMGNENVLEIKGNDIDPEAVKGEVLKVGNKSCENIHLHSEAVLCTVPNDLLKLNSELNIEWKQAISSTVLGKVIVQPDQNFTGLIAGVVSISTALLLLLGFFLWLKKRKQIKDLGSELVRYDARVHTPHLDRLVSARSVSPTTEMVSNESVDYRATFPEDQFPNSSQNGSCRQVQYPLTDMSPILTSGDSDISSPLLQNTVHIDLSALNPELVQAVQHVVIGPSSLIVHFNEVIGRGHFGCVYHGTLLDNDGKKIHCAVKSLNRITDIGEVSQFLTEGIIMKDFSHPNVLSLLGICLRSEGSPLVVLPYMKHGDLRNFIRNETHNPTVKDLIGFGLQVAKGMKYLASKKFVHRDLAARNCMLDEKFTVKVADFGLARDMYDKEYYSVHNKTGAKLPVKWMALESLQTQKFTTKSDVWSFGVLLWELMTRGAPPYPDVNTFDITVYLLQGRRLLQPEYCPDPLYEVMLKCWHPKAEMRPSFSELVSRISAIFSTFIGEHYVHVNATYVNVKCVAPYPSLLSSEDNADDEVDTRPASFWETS

FRAP1 (mTOR) = target: T7, FRAP1 (mTOR) (Homo sapiens, UniProt P42345); assay: Kinase panel profiling: FRAP1; format: biochemical; details: ATP equal to KM
T7 construct: purchased Thermo Fisher Scientific (Invitrogen) SelectScreen (Z'-LYTE)

MUSK = target: T8, MUSK (Homo sapiens, UniProt O15146); assay: Kinase panel profiling: MUSK; format: biochemical; details: ATP equal to KM
T8 construct: purchased Thermo Fisher Scientific (Invitrogen) SelectScreen (Z'-LYTE)
T8 sequence (O15146 24-869): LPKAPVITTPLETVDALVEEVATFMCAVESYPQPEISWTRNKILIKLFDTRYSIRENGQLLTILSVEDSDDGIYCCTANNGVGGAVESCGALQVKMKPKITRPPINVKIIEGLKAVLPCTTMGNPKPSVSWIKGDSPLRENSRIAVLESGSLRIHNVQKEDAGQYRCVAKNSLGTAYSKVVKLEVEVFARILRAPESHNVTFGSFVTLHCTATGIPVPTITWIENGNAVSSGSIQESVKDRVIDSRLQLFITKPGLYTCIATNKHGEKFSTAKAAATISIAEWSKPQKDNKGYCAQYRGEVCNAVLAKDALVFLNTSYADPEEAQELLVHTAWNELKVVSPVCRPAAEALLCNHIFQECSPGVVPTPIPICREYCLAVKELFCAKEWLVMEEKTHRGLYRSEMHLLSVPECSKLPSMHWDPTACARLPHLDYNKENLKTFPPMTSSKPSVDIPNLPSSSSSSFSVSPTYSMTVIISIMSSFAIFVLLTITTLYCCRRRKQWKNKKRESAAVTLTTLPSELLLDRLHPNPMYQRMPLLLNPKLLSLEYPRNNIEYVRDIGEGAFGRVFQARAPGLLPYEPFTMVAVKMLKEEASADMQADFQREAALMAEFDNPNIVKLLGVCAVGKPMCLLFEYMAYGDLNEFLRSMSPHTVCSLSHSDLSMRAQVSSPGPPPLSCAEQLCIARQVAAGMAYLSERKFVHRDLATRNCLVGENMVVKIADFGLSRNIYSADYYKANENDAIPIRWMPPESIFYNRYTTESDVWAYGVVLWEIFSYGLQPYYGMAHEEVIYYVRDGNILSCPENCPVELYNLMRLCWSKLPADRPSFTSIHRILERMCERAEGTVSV

ERBB4 (HER4) = target: T9, ERBB4 (HER4) (Homo sapiens, UniProt Q15303); assay: Kinase panel profiling: ERBB4; format: biochemical; details: ATP equal to KM
T9 construct: purchased Thermo Fisher Scientific (Invitrogen) SelectScreen (Z'-LYTE)

FLT4 (VEGFR3) = target: T10, FLT4 (VEGFR3) (Homo sapiens, UniProt P35916); assay: Kinase panel profiling: FLT4; format: biochemical; details: ATP equal to KM
T10 construct: purchased Thermo Fisher Scientific (Invitrogen) SelectScreen (Z'-LYTE)
T10 sequence (P35916 25-1363): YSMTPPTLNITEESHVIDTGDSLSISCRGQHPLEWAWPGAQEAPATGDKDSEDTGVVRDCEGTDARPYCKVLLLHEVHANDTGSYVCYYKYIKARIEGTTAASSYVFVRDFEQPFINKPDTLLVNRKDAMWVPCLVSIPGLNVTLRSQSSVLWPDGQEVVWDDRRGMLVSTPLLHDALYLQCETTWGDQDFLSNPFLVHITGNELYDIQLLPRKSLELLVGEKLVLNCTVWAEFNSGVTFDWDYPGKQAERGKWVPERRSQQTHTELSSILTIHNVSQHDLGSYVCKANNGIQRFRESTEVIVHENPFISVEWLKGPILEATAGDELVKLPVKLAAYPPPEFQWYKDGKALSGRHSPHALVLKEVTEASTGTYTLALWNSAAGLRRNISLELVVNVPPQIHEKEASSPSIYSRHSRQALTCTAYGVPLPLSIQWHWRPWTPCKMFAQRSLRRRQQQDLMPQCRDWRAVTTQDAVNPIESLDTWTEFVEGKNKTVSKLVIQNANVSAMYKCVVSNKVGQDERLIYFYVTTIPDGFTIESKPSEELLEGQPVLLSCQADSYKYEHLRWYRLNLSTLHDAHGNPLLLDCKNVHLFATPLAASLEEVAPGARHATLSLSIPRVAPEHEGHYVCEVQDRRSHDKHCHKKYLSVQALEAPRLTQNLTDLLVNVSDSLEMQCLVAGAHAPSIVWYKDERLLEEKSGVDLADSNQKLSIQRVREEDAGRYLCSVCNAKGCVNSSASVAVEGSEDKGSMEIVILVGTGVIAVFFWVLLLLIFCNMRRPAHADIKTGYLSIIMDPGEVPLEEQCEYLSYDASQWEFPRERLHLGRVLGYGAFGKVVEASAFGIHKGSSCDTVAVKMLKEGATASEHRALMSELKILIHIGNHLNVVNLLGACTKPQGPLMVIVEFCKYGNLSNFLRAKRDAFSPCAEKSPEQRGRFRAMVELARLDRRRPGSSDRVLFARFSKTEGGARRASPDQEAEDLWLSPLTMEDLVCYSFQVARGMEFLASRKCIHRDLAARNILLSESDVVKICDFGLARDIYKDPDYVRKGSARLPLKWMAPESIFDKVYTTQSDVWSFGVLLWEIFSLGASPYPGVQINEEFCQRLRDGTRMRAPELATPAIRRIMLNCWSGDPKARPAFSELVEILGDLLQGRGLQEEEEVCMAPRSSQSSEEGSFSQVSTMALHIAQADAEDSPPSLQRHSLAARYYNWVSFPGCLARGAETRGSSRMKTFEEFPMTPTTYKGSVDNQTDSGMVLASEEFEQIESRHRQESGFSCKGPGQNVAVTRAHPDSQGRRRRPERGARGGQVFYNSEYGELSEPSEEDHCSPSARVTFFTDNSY

GSK3B (GSK3 beta) = target: T11, GSK3B (GSK3 beta) (Homo sapiens, UniProt P49841); assay: Kinase panel profiling: GSK3B; format: biochemical; details: ATP equal to KM
T11 construct: purchased Thermo Fisher Scientific (Invitrogen) SelectScreen (Z'-LYTE)
T11 sequence (P49841 whole entry): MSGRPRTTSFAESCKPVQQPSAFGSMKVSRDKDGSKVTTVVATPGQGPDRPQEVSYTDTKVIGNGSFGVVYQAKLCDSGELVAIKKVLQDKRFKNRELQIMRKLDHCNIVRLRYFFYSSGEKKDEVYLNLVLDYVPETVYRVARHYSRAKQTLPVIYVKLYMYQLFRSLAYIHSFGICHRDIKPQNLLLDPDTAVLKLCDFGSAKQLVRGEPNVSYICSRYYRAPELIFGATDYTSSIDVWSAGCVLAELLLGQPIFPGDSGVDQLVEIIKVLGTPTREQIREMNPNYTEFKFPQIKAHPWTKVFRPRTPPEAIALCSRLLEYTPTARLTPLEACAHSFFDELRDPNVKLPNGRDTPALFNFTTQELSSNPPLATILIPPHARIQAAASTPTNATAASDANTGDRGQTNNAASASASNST

CDK1/cyclin B = target: T12, CDK1/cyclin B (Homo sapiens, UniProt P06493); assay: Kinase panel profiling: CDK1/cyclin B; format: biochemical; details: ATP equal to KM
T12 construct: purchased Thermo Fisher Scientific (Invitrogen) SelectScreen (Z'-LYTE)

SRC = SRC (Homo sapiens, UniProt P12931); assay: Kinase panel profiling: SRC; format: biochemical; details: ATP equal to KM
YES1 = YES1 (Homo sapiens, UniProt P07947); assay: Kinase panel profiling: YES1; format: biochemical; details: ATP equal to KM
Sequence of YES1 (P07947 whole entry): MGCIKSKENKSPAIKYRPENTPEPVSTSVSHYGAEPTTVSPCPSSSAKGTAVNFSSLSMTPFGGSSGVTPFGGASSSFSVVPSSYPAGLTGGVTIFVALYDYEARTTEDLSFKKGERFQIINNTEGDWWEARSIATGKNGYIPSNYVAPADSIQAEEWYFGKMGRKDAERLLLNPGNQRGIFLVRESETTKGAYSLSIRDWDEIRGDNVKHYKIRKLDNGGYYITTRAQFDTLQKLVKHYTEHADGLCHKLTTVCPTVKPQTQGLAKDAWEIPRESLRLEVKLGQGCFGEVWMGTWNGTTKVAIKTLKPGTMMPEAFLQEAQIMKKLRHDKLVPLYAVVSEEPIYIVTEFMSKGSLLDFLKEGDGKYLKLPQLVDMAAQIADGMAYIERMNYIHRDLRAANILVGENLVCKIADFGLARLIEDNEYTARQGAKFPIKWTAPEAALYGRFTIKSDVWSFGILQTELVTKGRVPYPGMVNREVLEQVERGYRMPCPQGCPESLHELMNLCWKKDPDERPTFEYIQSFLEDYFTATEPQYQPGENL

RET = RET (Homo sapiens, UniProt P07949); assay: Kinase panel profiling: RET; format: biochemical; details: ATP equal to KM
[2] = 1000 nM test concentration, read-out: Average inhibition (%)
[3] = 1000 nM, first data point, read-out: Inhibition (%)
[4] = 1000 nM, second data point, read-out: Inhibition (%)

Compound `Cc1cccc(CN(C)c2ncnc3[nH]c(-c4cn(Cc5cccnc5)nn4)cc23)c1` [Compound 27a, N-Methyl-N-(3-methylbenzyl)-6-(1-(pyridin-3-ylmethyl)-1H-1,2,3-triazol-4-yl)-7H-pyrrolo[2,3-d]pyrimidin-4-amine] has an inhibition at 1 µM (JAK2; [2]) of 26%, an inhibition at 1 µM (JAK2; [3]) of 25% and an inhibition at 1 µM (JAK2; [4]) of 26%. The inhibition at 1 µM (CLK1; [2]) was 8%, the inhibition at 1 µM (CLK1; [3]) was 8% and the MLM [1] was 295 µL/min/mg. For the same compound, the inhibition at 1 µM (KIT; [2]) was 57%, the inhibition at 1 µM (KIT; [3]) was 56% and the inhibition at 1 µM (KIT; [4]) was 58%. The inhibition at 1 µM (ITK; [2]) was 55%, the inhibition at 1 µM (ITK; [3]) was 58% and the inhibition at 1 µM (ITK; [4]) was 51%. The inhibition at 1 µM (AKT1 (PKB alpha); [2]) was 2%, the inhibition at 1 µM (AKT1 (PKB alpha); [3]) was 3% and the inhibition at 1 µM (AKT1 (PKB alpha); [4]) was 1%. It also gave an inhibition at 1 µM (MET (cMet); [2]) of 13%, an inhibition at 1 µM (MET (cMet); [3]) of 10% and an inhibition at 1 µM (MET (cMet); [4]) of 16%. It also gave an inhibition at 1 µM (FRAP1 (mTOR); [2]) of -3%, an inhibition at 1 µM (FRAP1 (mTOR); [3]) of -4% and an inhibition at 1 µM (FRAP1 (mTOR); [4]) of -2%. It also gave an inhibition at 1 µM (MUSK; [2]) of 72%, an inhibition at 1 µM (MUSK; [3]) of 73% and an inhibition at 1 µM (MUSK; [4]) of 72%. The inhibition at 1 µM (ERBB4 (HER4); [2]) was 14%, the inhibition at 1 µM (ERBB4 (HER4); [3]) was 13% and the inhibition at 1 µM (ERBB4 (HER4); [4]) was 15%. It also gave an inhibition at 1 µM (FLT4 (VEGFR3); [2]) of 16%, an inhibition at 1 µM (FLT4 (VEGFR3); [3]) of 15% and an inhibition at 1 µM (FLT4 (VEGFR3); [4]) of 16%. It also gave an inhibition at 1 µM (GSK3B (GSK3 beta); [2]) of 61%, an inhibition at 1 µM (GSK3B (GSK3 beta); [3]) of 59% and an inhibition at 1 µM (GSK3B (GSK3 beta); [4]) of 62%. For the same compound, the inhibition at 1 µM (CDK1/cyclin B; [2]) was 27%, the inhibition at 1 µM (CDK1/cyclin B; [3]) was 24% and the inhibition at 1 µM (CDK1/cyclin B; [4]) was 29%. It also gave an inhibition at 1 µM (SRC; [2]) of 96%, an inhibition at 1 µM (SRC; [3]) of 96% and an inhibition at 1 µM (SRC; [4]) of 95%. For the same compound, the inhibition at 1 µM (YES1; [2]) was 101%, the inhibition at 1 µM (YES1; [3]) was 102% and the inhibition at 1 µM (YES1; [4]) was 99%. The inhibition at 1 µM (RET; [2]) was 29%, the inhibition at 1 µM (RET; [3]) was 28% and the inhibition at 1 µM (RET; [4]) was 30%.

From publication PMC12196347, “Evaluating Triazole-Substituted Pyrrolopyrimidines as CSF1R Inhibitors” (Molecules, 2025)
